Legend:
PAR2 = molecular target: T1, PAR2 (Homo sapiens, UniProt P55085); assay: CaCC-dependent Cl- secretion (short-circuit current, Ussing chamber) by PAR2-AP in primary cultured human conjunctival epithelial cells; assay type: cell-based; set-up: endogenous in cells; conditions: 10 μM for 10 minutes, 100 μM PAR2-AP, after 100 μM amiloride
T1 sequence (P55085 26-397): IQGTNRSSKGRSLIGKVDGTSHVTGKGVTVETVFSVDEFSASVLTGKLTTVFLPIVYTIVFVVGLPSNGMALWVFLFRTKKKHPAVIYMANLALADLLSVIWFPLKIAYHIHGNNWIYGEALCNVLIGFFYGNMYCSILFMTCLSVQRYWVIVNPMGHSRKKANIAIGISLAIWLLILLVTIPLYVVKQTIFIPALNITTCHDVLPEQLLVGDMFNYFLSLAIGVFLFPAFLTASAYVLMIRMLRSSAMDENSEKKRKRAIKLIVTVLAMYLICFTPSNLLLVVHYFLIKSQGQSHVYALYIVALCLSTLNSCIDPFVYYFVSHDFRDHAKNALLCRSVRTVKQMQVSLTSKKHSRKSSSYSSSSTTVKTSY
Method: After primary cultured human conjunctival epithelial cells expressing PAR2 were cultured in a transwell, followed by removal of a culture medium on the side of an apical membrane, retinoic acid was added to the side of a basolateral membrane to differentiate for about 2 weeks (Invest Ophthalmol Vis Sci. 2013 Oct. 29; 54(10): 7143-52), and then, short-circuit currents were measured using a Ussing chamber. […] Next, by treating 10 μM forskolin, which is a an activator of the cystic fibrosis transmembrane conductance regulator (CFTR), the effect of promoting Cl^− secretion by the cystic fibrosis transmembrane conductance regulator (CFTR) channel was measured, and then, by treating 10 μM CFTRihn-172(5-[(4-carboxyphenyl)methylene]-2-thioxo-3-[(3-trifluoromethyl)phenyl-4-thiazolidinone]) (J Clin Invest. 2002 December; 110(11): 1651-8), which is a CFTR inhibitor, it was confirmed that Cl^− secretion by the CFTR channel was inhibited (panel A of FIG. 3).
Meanwhile, Cl^− secretion by PAR1-AP was not measured as a result of the above experiment, and in order to confirm the inhibitory effect of Cl^− secretion during punicalagin treatment. […]

[1] = system: ICR mice with atopic dermatitis induced by DNFB; assay: Atopic dermatitis and pruritus induced by DNFB in mice; assay type: in vivo; conditions: 3 mg/kg intraperitoneally daily
Method: In 12-week-old ICR mice, it was confirmed whether punicalagin inhibits pruritus caused by atopic dermatitis induced by 1-fluoro-2,4-dinitrobenzene (DNFB).
Specifically, as shown in panel A of FIG. 19, punicalagin (PG) was dissolved in physiological saline and intraperitoneally injected at 3 mg/kg daily for 17 days, and atopic dermatitis and pruritus were induced by treating 0.15% DNFB dissolved in acetone with a cotton swab on the back of the mice on the 10th, 13th, 20th, and 27th days.

[2] = system: conjunctival epithelial cells; assay: IL-6 secretion by house dust mite (HDM) in conjunctival epithelial cells (enzyme immunoassay); assay type: cell-based, human; conditions: 10 μg/mL HDM 24 hours
Method: Next, conjunctival epithelial cells showing a high response to the concentration increase of intracellular calcium ions by HDM and PAR2-AP were treated with 1, 3, and 10 μM punicalagin, and after treating with 10 μg/mL HDM for 24 hours, secreted IL-6 cytokines were measured by enzyme immunoassay. As a result, it was confirmed that 1, 3, and 10 μM punicalagin inhibited about 50, 91, and 93% of IL-6 cytokines that were increased by HDM, respectively (panel C of FIG. 5).

[3] = system: SD rats with colitis induced by TNBS; assay: Colitis induced by trinitrobenzene sulfonic acid (TNBS) in rats; assay type: in vivo; conditions: 1, 3 and 10 mg/kg intraperitoneally for 3 days
Method: Specifically, 80 mg/kg TNBS was diluted in 50% ethanol and injected into the anus of rats, and punicalagin (1, 3, and 10 mg/kg) was intraperitoneally injected for 3 days. As control groups, a group which was intraperitoneally injected with PBS and treated with 50% ethanol only (n=3) and a group which was intraperitoneally injected with PBS and was treated only with TNBS (n=3) were established, and weight change was measured. After 3 days, the rats of each group were sacrificed, the colon was extracted to measure the length, and the spleen was extracted and weighed.

NIH3T3 cells = assay: Cell viability of NIH3T3 cells; assay type: cell-based; conditions: up to 30 μM
Method: In order to determine the toxicity of punicalagin, the effect of NIH3T3 cells on cell viability and the weight change of 8-week-old wild-type mice were evaluated, and the heart, liver, and lung were extracted from 30-week-old lupus mice and were histologically evaluated by performing hematoxylin-eosin staining.

[4] = system: C57BL6N mice with pruritus induced by PAR2-AP; assay: Pruritus induced by PAR2-AP in mice (number of scratches); assay type: in vivo; conditions: for number of scratches during the initial 10 minutes: saline group 104; for number of scratches for 40 minutes: PAR2-AP group about 240
Method: In seven-week-old C57BL6N mice, it was confirmed whether punicalagin (PG) has an effect of alleviating pruritus symptoms induced by PAR2 receptor activation by PAR2-AP (activating peptide). In addition, the effects of punicalin (PNC) and ellagic acid (EA), which are metabolites of punicalagin and contained in pomegranate peel in a large amount, were also confirmed.
Specifically, each of 0, 1, 3, and 10 mg/kg punicalagin (n=4) was dissolved in physiological saline and intraperitoneally injected, and after 30 minutes, 100 μg of PAR2-AP was intradermally injected to induce pruritus. As control groups, a group which was intraperitoneally injected with physiological saline only (n=4) and a group which was intraperitoneally injected with 10 mg/kg punicalagin (n=4) were established, and the number of scratches was measured for 40 minutes.

carbonic anhydrase = conditions: cited from earlier work

## O=CC1OC(=O)c2cc(O)c(O)c(O)c2-c2c(cc(O)c(O)c2O)C(=O)OC1C1OC(=O)c2cc(O)c(O)c(O)c2-c2c(O)c(O)c3oc(=O)c4c(c(O)c(O)c5oc(=O)c2c3c54)-c2c(cc(O)c(O)c2O)C(=O)OCC1O (stereo not shown) [punicalagin, 1,2,3,11,12,13-hexahydroxy-5,10-dioxo-8-[3,4,5,11,17,18,19,22,23,34,35-undecahydroxy-8,14,26,31-tetraoxo-9,13,25,32-tetraoxaheptacyclo[25.8.0.0^2,7.0^15,20.0^21,30.0^24,29.0^28,33]pentatnaconta-1(35),2,4,6,15,17,19,21,23,27,29,33-dodecaen-10-yl]-5,7,8,10-tetrahydrodibenzo[f,h][1,4]dioxecin-7-carbaldehyde]
PAR2
  increase in CaCC-dependent Cl- secretion on PAR2 activation: inhibited
[1]
  suppression of the number of scratches caused by DNFB, measured for 30 minutes: about 60%
[1]; 0.15% DNFB
  atopic dermatitis (skin inflammation): significantly reduced
[2]; 1 μM
  inhibition of IL-6 cytokines increased by HDM: about 50%
[2]; 3 μM
  inhibition of IL-6 cytokines increased by HDM: ~91%
[2]; 10 μM
  inhibition of IL-6 cytokines increased by HDM: ~93%
[3]
  colon tissue damage caused by TNBS: inhibited colon tissue damage caused by TNBS in a concentration-dependent manner
  concentrations of inflammatory cytokines (INF-γ, IL-2, IL-4, IL-6, IL-β, TNF-α, IL-1β, etc.) increased by TNBS: significantly decreased
[3]; concentration-dependent
  colon length reduction by TNBS: significantly inhibited
  weight increase of the spleen by TNBS: significantly inhibited
  weight loss by TNBS: significantly inhibited
NIH3T3 cells
  effect on viability of NIH3T3 cells: no effect
[4]; 1 mg/kg intraperitoneally, 100 μg PAR2-AP intradermally
  number of scratches during the initial 10 minutes: about 59 times
[4]; 1 mg/kg
  number of scratches for 40 minutes: about 188 times
[4]; 3 mg/kg intraperitoneally
  number of scratches during the initial 10 minutes: ~28 times
[4]; 3 mg/kg
  number of scratches for 40 minutes: ~103 times
[4]; 10 mg/kg intraperitoneally
  number of scratches during the initial 10 minutes: ~14 times
[4]; 10 mg/kg
  number of scratches for 40 minutes: ~40 times
Carbonic anhydrase
  activity against carbonic anhydrase: inhibitory activity

From patent publication US11957699B2, “Composition comprising punicalagin for inhibiting PAR2 activity” (INDUSTRY-ACADEMIC COOPERATION FOUNDATION, YONSEI UNIVERSITY, priority 2018, dated 2024)
